Experimental data from patent US20240131004A1, “FUNCTIONALIZED 1,3-BENZENE DIOLS AND THEIR METHOD OF USE FOR THE TREATMENT OF INFLAMMATION AND PAIN” (KANNALIFE SCIENCES, INC., priority 2021, published 2024).
Entries after “also recorded” stand apart in the source; their conditions may differ.

Key:
human GPR55 = molecular target: T1, human GPR55 (Homo sapiens, UniProt Q9Y2T6); experiment: PathHunter β-arrestin assay, human GPR55 in CHO-K1 cell line; type: cell-based; details: 10 μM LPI
T1 construct: host or cells: CHO-K1
T1 sequence (Q9Y2T6 whole entry): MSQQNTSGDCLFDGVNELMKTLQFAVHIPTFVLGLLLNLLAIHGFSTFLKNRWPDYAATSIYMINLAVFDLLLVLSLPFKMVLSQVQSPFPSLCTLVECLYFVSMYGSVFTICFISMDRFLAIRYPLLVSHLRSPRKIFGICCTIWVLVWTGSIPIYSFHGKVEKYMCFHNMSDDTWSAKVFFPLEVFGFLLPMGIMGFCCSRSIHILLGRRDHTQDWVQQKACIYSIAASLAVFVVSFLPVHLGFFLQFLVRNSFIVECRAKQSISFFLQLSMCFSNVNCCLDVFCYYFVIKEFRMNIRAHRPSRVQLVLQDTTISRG
Method: In this assay, agonist-induced activation of GPR55 stimulates binding of β-arrestin to the Pro-link-tagged GPCR and forces complementation of two enzyme fragments, resulting in the formation of an active β-galactosidase enzyme. This interaction leads to an increase in enzyme activity that can be measured using chemiluminescent PathHunter detection reagents. For our application, the GPR55 agonist lysophosphatidylinositol (LPI) was tested from 0.1 nM to 30 μM to increase the relative luminescent signal relative to that of control. […] For the GPR55 antagonism assay, KLS-13019 concentrations ranging from 0.1 nM to 30 μM were tested in the presence of 16 μM LPI. Concentrations of KLS-13019 ranging from 0.1 nM to 30 μM were tested alone for possible effects of agonistic activity on β-arrestin.
A PathHunter β-arrestin assay is shown in FIG. 8 that provides a measure of an antagonist mode assessment of KLS-13019 with a human GPR55 model system (Eurofins). To measure the β-arrestin response to a GPR55 agonist, various concentrations of lysophosphatidylinositol (LPI) were used as shown in the closed circles. […] Based on these findings, 16 μM LPI was incubated with various concentrations of KLS-13019 to test for antagonistic properties (closed inverted triangles). […] All assays were conducted with an N=10.

GPR55 [1] = details: DRG neurons
Text: (§1) Because of the recognized importance of sensory neurons in DRG to transmitting peripheral nociception (Krames, 2014) and the reported accumulation of paclitaxel in DRG from models of CIPN (Duggett et al., 2016), the preparation of choice for the in vitro studies to study protection and anti-inflammation was dissociated cultures from rat DRG. DRG cultures derived from embryonic day 18 rats were employed as the primary assay system to study KLS-13019-properties. In brief, DRG were obtained commercially through Brain Bits (Springfield, IL) and cultures prepared with slight modifications to methods previously described (Brenneman et al., 2019). Tissue was dissociated with a papain-based kit from Worthington Biochemical Corporation (Lakewood, NJ). The DRG cells were plated at low density (10,000 cells/well) in a 96-well format and maintained in serum-free medium consisting of Neurobasal Medium supplemented with B27, GlutaMAX (Gibco) and 25 ng/ml Nerve Growth Factor. Poly-D-lysine coated plates (BD Biosciences, Franklin Lakes, NJ) were employed for this culture system. Prior to the initiation of experiments between days 5 and 9 in vitro, a complete change of medium was performed in a working volume of 100 μL.
(§2) To assess all antibody-based assays, immunocytochemical methods were employed. The goals for these assays included: 1) to assess the immunoreactive area of our molecular targets (IL-1β, IL-6, GPR55, NLRPA3) with their respective primary antibodies and distinctively labeled secondary antibodies; and 2) to compare the relative responses in both neuronal cell bodies and neurites. Prior to fixation, growth medium was removed and the wells were rinsed one time with 100 μL of DPBS (37° C.). This warm rinse is particularly important to maintain structural stability of neurites. After removal of the DPBS, cultures were fixed for 20 min at room temperature with 50 μL/well of 3.5% formaldehyde (Sigma-Aldrich: 252549) in warm (37° C.) DPBS that contained 5.5 μg/mL of Hoechst 33342 dye (Invitrogen: H3570) to label cell nuclei. After removal of the fixative, the cultures were rinsed twice with 100 μL of DPBS and then a permeabilization/blocking buffer containing 5% normal goat serum and 0.3% triton-X100 in DPBS was added to the cultures for 10 min. After removal of the blocking buffer, the cultures were rinsed twice with 100 μL of DPBS and then primary antibodies were added for one-hour incubation at room temperature. Neurons were identified with antiserum to type III beta tubulin (tuj 1) to measure changes in all neuronal parameters. The primary antiserum employed was rabbit anti-rat obtained from Sigma-Aldrich (T2200) and used at 1:200 dilution. […]

interleukin-6 = details: 1 nM LPIA, after one hour of incubation, DRG neurons
Text: as §1, §2

interleukin-1β = details: 1 nM LPIA, after one hour of incubation, DRG neurons
Text: as §1, §2

NLRP3 = experiment: Neuritic NLRP3 immunoreactive spot area in hippocampal neurons, LPIA reversal paradigm; type: cell-based, rat; details: 1 nM LPIA, hippocampal cultures
Text: Tissue was dissociated with a papain-based kit from Worthington Biochemical Corporation (Lakewood, NJ).
To assess all antibody-based assays, immunocytochemical methods were employed. The goals for these assays included: 1) to assess the immunoreactive area of our molecular targets (IL-1β, IL-6, GPR55, NLRPA3) with their respective primary antibodies and distinctively labeled secondary antibodies; and 2) to compare the relative responses in both neuronal cell bodies and neurites. Prior to fixation, growth medium was removed and the wells were rinsed one time with 100 μL of DPBS (37° C.). This warm rinse is particularly important to maintain structural stability of neurites. After removal of the DPBS, cultures were fixed for 20 min at room temperature with 50 μL/well of 3.5% formaldehyde (Sigma-Aldrich: 252549) in warm (37° C.) DPBS that contained 5.5 μg/mL of Hoechst 33342 dye (Invitrogen: H3570) to label cell nuclei. After removal of the fixative, the cultures were rinsed twice with 100 μL of DPBS and then a permeabilization/blocking buffer containing 5% normal goat serum and 0.3% triton-X100 in DPBS was added to the cultures for 10 min. After removal of the blocking buffer, the cultures were rinsed twice with 100 μL of DPBS and then primary antibodies were added for one-hour incubation at room temperature. Neurons were identified with antiserum to type III beta tubulin (tuj 1) to measure changes in all neuronal parameters. The primary antiserum employed was rabbit anti-rat obtained from Sigma-Aldrich (T2200) and used at 1:200 dilution. The secondary was an Alexa Fluor 488-conjugated Fab fragment of goat anti-rabbit IgG obtained from Life Technologies (A11070) used at 1:600.

GPR55 [2] = experiment: Neuritic GPR55 immunoreactive area in DRG cultures, 6 h co-treatment with LPIA; type: cell-based, rat; details: 1 nM LPIA, 6 hours, DRG cultures
Text: as §1
To assess all antibody-based assays, immunocytochemical methods were employed. The goals for these assays included: 1) to assess the immunoreactive area of our molecular targets (IL-1β, IL-6, GPR55, NLRPA3) with their respective primary antibodies and distinctively labeled secondary antibodies; and 2) to compare the relative responses in both neuronal cell bodies and neurites. Prior to fixation, growth medium was removed and the wells were rinsed one time with 100 μL of DPBS (37° C.). This warm rinse is particularly important to maintain structural stability of neurites. After removal of the DPBS, cultures were fixed for 20 min at room temperature with 50 μL/well of 3.5% formaldehyde (Sigma-Aldrich: 252549) in warm (37° C.) DPBS that contained 5.5 μg/mL of Hoechst 33342 dye (Invitrogen: H3570) to label cell nuclei. […]

lysophosphatidylinositol [LPI, reference compound]
Agonist signal in β-arrestin assay (human GPR55): robust and reproducible signal; also recorded: robust agonist signal

lysophosphatidylinositol arachidonate [LPIA]
Concentration producing a maximum effect on GPR55 IR area (GPR55 [1]; preliminary concentration-effect studies): 1 nM | Effect on GPR55 IR area (GPR55 [1]; LPIA, after one hour of incubation): increases in GPR55 IR area | Effect on neuritic IL-6 IR area (interleukin-6): significant increases | Effect on neuritic IL-1β IR area (interleukin-1β): significant increases | Effect of LPIA on neuritic NLRP3 spot area (NLRP3): increased NLRP3 spot area | Effect of LPIA on neuritic GPR55 area (GPR55 [2]): produced an increase in neuritic GPR55
